The values below come from patent US20070009531A1 (priority 2005, published 2007).

The conditions of data set [1]: combination of verapamil and VAD (vincristine, doxorubicin, dexamethasone); cited from earlier work.
The subject of data set [2] is P-gp-associated resistance. As to the kind of experiment: in vivo activity in preclinical animal studies.
Data set [3] is described as follows: pharmacokinetic interaction with co-administered oncolytics in preclinical models. Type of data set: in vivo. The conditions noted are these: several oncolytics.
Data set [4] relates to AML. The settings on record: older patients, Mylotarg alone, registration trials; cited from earlier work.

Entries after “also recorded” stand apart in the source; their conditions may differ.

As to `COc1ccc(CCN(C)CCCC(C#N)(c2ccc(OC)c(OC)c2)C(C)C)cc1OC` (stereo not shown) [verapamil], in data set [1], the patients responded was 5 of 22.

As to `O[C@@H](COc1cccc2ncccc12)CN1CCN([C@@H]2c3ccccc3[C@@H]3[C@H](c4ccccc42)C3(F)F)CC1` [zosuquidar], in data set [2], the in vivo activity result is recorded as “good in vivo activity”. In addition, the “pharmacokinetic interaction with co-administered chemotherapy” value in data set [3] was “no pharmacokinetic interaction; also recorded: minimal pharmacokinetic (PK) interactions”.

Regarding gemtuzumab ozogamicin [Mylotarg], in data set [4], the “rate of complete remission (CR+CRp)” value is 26%.
